Reference: patent US9271982B2, “Animal feed supplement comprising ractopamine and caffeine” (Rivalea (Australia) Pty Ltd, priority 2012, dated 2016)
Read-outs that look alike come from different tables or passages of the source.

How the values were obtained:
finisher pigs = test: Earlier study evaluating caffeine inclusion rates in finisher diets; format: in vivo, pig; details: for Feed intake: without caffeine 2.62 kg/d
Description: The management of weight and carcass P2 during Autumn is critical in markets that are paid on a grid of both parameters. The rate of fat deposition is at a maximum during the finisher period and is related to the amount of energy consumed by the pig. Excess energy intake above that required for protein deposition during this time is deposited as fat. As such, strategies to reduce feed intake from the excessive highs during autumn are often implemented. Caffeine is one ingredient that can be included in finisher diets to limit excessive feed intake. A study evaluating caffeine inclusion rates was conducted with the results confirming the intake restricting effects of caffeine inclusion. Feed intake was reduced from 2.62 kg/d to 2.45 and 2.33 kg/d with caffeine included in the diet at either 0.5 kg/t or 0.75 kg/t respectively. […] There has however been no evaluation of the effects of caffeine inclusion when the finisher diet also contains Paylean™. As such, the aim of this study was to determine the effects of caffeine inclusion when Paylean™ is also present in the finisher diet.

[1] = tested on: finisher gilts and Improvac males; test: Study 1: deaths, removals and animal welfare during the test period
Description: (§1) Pigs were selected to start on trial over three days during week 20 of the test year. […] All diets were formulated to contain 0.62 g available lysine/MJ DE and 13.8 MJ DE/kg.

[2] = tested on: finisher gilts and Improvac males; format: in vivo, pig
Description: as §1
Data were subjected to an analysis of variance (ANOVA) with the main effects being dietary treatment and sex. Replicate (start date within week) was included in the analyses to account for the blocking factor. The experimental unit for all analyses was the pen of pigs. All analyses were performed using Genstat 8th Edition (Payne R W, Harding S A, Genstat Committee 2005 Genstat release 8 reference manual, USN International: Oxford UK)

[3] = Study 1, entire 35 day test period
[4] = Study 1 (autumn), RAC 7.5 ppm / caffeine 0.5 kg/t in feed, 0-14 days
[5] = Study 1 (autumn), RAC 7.5 ppm / caffeine 0.5 kg/t in feed, 0-35 days
[6] = Study 1 (autumn), RAC 7.5 ppm / caffeine 0.5 kg/t in feed, 14-35 days
[7] = Study 1 (autumn), diets fed 35 days, slaughter at 21 wk

## Cn1c(=O)c2c(ncn2C)n(C)c1=O [Caffeine]
Finisher pigs; caffeine 0.5 kg/t in diet
  Reduction of growth rate: 95 g/day
  Feed intake: 2.45 kg/day
Finisher pigs; caffeine 0.75 kg/t in diet
  Reduction of growth rate: 163 g/day
  Feed intake: 2.33 kg/day
[1]; Large White×Landrace, pig, in vivo
  Off trial: Meningitis (number of pigs): 1
[1]; Study 1, 0-14 days
  TOTAL deaths and removals (number of pigs): 0
[1]; Study 1, 14-35 days
  Deaths: Ileitis (number of pigs): 1
  Deaths: SD (number of pigs): 1
  TOTAL deaths and removals (number of pigs): 4
[1]; [3]
  Deaths (dead/total pigs in treatment group): 2/307
  Deaths, percentage of pigs: 0.65%
[1]; both, Large White×Landrace, pig, in vivo
  Off trial: Lame (number of pigs): 1
[2]; [4]
  ADFI: 2.44 kg/day
  FCR: 2.64 kg/kg
[2]; [5]
  ADFI: 2.70 kg/day
  FCR: 2.78 kg/kg
[2]; [6]
  ADFI: 2.88 kg/day
  FCR: 2.89 kg/kg
[2]; Study 1 (autumn), RAC 7.5 ppm / caffeine 0.5 kg/t in feed, day 0 baseline, 16 wk of age
  Live weight Day 0: 61.3 kg
[2]; Study 1 (autumn), RAC 7.5 ppm / caffeine 0.5 kg/t in feed, day 14
  Live weight Day 14: 74.2 kg
[2]; Study 1 (autumn), RAC 7.5 ppm / caffeine 0.5 kg/t in feed, day 35
  Live weight Day 35: 95.3 kg
[2]; Study 1 (autumn), diets fed 35 days
  Dressing %: 77.9%
[2]; [7]
  Carcass P2 (carcass weight as covariate): 10.4 mm
  Carcass weight: 74.1
[2]; Study 1 (autumn), diets fed 35 days, carcass weight included as covariate
  % pigs P2 >12 mm (carcass weight as covariate): 22.3%
[2]; Study 1 (autumn), diets fed 35 days, no covariate
  % pigs P2 >12 mm: 19.5%
[2]; Study 1, statistical comparison between diets
  Carcass weight: reduced carcass weight compared to either of the RAC treatment groups
